Data taken from PubChem BioAssay AID2060884 (Molecular Pharmacology Branch, DTP, NCI, 2025).

Test system: NCI-H929 complex spheroids, viability % test/control
Assay: Anticancer human tumor NCI-H929 cell line growth inhibition [RAS];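 note: compound exposure lasted seven days before viability was read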;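 for viability, T/C: 100% = DMSO vehicle control viability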
Conditions: for IC50: curve of first compound; for viability, T/C: stronger effect = lower value; active = viability on the fitted dose curve at most 10% of control; inactive = the rest
How it was run: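 Agents were tested in combination matrices in half-log decrements from a top concentration at or near clinical Cmax (10 microM if undetermined). Targets were multi-cell spheroids of tumour lines plus HUVEC and MSC stromal cells.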

[1] = second compound 0.000949 µM, first compound 0.0316 µM
[2] = second compound 0.000949 µM, first compound 0.1 µM
[3] = second compound 0.000949 µM, first compound 0.316 µM
[4] = second compound 0.000949 µM, first compound 1 µM
[5] = second compound 0.000949 µM, first compound 3.16 µM
[6] = second compound 0.000949 µM, first compound 10 µM
[7] = second compound 0.003 µM, first compound 0.0316 µM
[8] = second compound 0.003 µM, first compound 0.1 µM
[9] = second compound 0.003 µM, first compound 0.316 µM
[10] = second compound 0.003 µM, first compound 1 µM
[11] = second compound 0.003 µM, first compound 3.16 µM
[12] = second compound 0.003 µM, first compound 10 µM
[13] = second compound 0.00949 µM, first compound 0.0316 µM
[14] = second compound 0.00949 µM, first compound 0.1 µM
[15] = second compound 0.00949 µM, first compound 0.316 µM
[16] = second compound 0.00949 µM, first compound 1 µM
[17] = second compound 0.00949 µM, first compound 3.16 µM
[18] = second compound 0.00949 µM, first compound 10 µM
[19] = second compound 0.03 µM, first compound 0.0316 µM
[20] = second compound 0.03 µM, first compound 0.1 µM
[21] = second compound 0.03 µM, first compound 0.316 µM
[22] = second compound 0.03 µM, first compound 1 µM
[23] = second compound 0.03 µM, first compound 3.16 µM
[24] = second compound 0.03 µM, first compound 10 µM
[25] = second compound 0.0949 µM, first compound 0.0316 µM
[26] = second compound 0.0949 µM, first compound 0.1 µM
[27] = second compound 0.0949 µM, first compound 0.316 µM
[28] = second compound 0.0949 µM, first compound 1 µM
[29] = second compound 0.0949 µM, first compound 3.16 µM
[30] = second compound 0.0949 µM, first compound 10 µM
[31] = second compound 0.3 µM, first compound 0.0316 µM
[32] = second compound 0.3 µM, first compound 0.1 µM
[33] = second compound 0.3 µM, first compound 0.316 µM
[34] = second compound 0.3 µM, first compound 1 µM
[35] = second compound 0.3 µM, first compound 3.16 µM
[36] = second compound 0.3 µM, first compound 10 µM

CC(Nc1ccc2c(c1)OCCn1cc(N3C(=O)OCC3C(F)F)nc1-2)C(N)=O (stereo unspecified) + C#Cc1c(F)ccc2cc(O)cc(-c3ncc4c(N5CC6CCC(C5)N6)nc(OCC56CCCN5CC(F)C6)nc4c3F)c12
9.56 µM: IC50 (second compound 3.16 µM)
inactive: viability, T/C (second compound 0.0316 µM, first compound 0.0316 µM) 99.8% | viability, T/C (second compound 0.0316 µM, first compound 0.1 µM) 102% | viability, T/C (second compound 0.0316 µM, first compound 0.316 µM) 112% | viability, T/C (second compound 0.0316 µM, first compound 1 µM) 110% | viability, T/C (second compound 0.0316 µM, first compound 3.16 µM) 114% | viability, T/C (second compound 0.0316 µM, first compound 10 µM) 66.2% | viability, T/C (second compound 0.1 µM, first compound 0.0316 µM) 95% | viability, T/C (second compound 0.1 µM, first compound 0.1 µM) 102% | viability, T/C (second compound 0.1 µM, first compound 0.316 µM) 109% | viability, T/C (second compound 0.1 µM, first compound 1 µM) 114% | viability, T/C (second compound 0.1 µM, first compound 3.16 µM) 113% | viability, T/C (second compound 0.1 µM, first compound 10 µM) 73.7% | viability, T/C (second compound 0.316 µM, first compound 0.0316 µM) 97.1% | viability, T/C (second compound 0.316 µM, first compound 0.1 µM) 102% | viability, T/C (second compound 0.316 µM, first compound 0.316 µM) 112% | viability, T/C (second compound 0.316 µM, first compound 1 µM) 115% | viability, T/C (second compound 0.316 µM, first compound 3.16 µM) 114% | viability, T/C (second compound 0.316 µM, first compound 10 µM) 70.3% | viability, T/C (second compound 1 µM, first compound 0.0316 µM) 94.6% | viability, T/C (second compound 1 µM, first compound 0.1 µM) 101% | viability, T/C (second compound 1 µM, first compound 0.316 µM) 112% | viability, T/C (second compound 1 µM, first compound 1 µM) 115% | viability, T/C (second compound 1 µM, first compound 3.16 µM) 113% | viability, T/C (second compound 1 µM, first compound 10 µM) 62.6% | viability, T/C (second compound 3.16 µM, first compound 0.0316 µM) 98.4% | viability, T/C (second compound 3.16 µM, first compound 0.1 µM) 102% | viability, T/C (second compound 3.16 µM, first compound 0.316 µM) 110% | viability, T/C (second compound 3.16 µM, first compound 1 µM) 114% | viability, T/C (second compound 3.16 µM, first compound 3.16 µM) 110% | viability, T/C (second compound 3.16 µM, first compound 10 µM) 47.7% | viability, T/C (second compound 10 µM, first compound 0.0316 µM) 96.6% | viability, T/C (second compound 10 µM, first compound 0.1 µM) 100% | viability, T/C (second compound 10 µM, first compound 0.316 µM) 98.6% | viability, T/C (second compound 10 µM, first compound 1 µM) 94.4% | viability, T/C (second compound 10 µM, first compound 3.16 µM) 70.2% | viability, T/C (second compound 10 µM, first compound 10 µM) 17.4%
> 10 µM: IC50 (second compound 0.0316 µM) | IC50 (second compound 0.1 µM) | IC50 (second compound 0.316 µM) | IC50 (second compound 1 µM)
4.91 µM: IC50 (second compound 10 µM)

CC(=O)OC12COC1CC(O)C1(C)C(=O)C(O)C3=C(C)C(OC(=O)C(O)C(NC(=O)OC(C)(C)C)c4ccccc4)CC(O)(C(OC(=O)c4ccccc4)C21)C3(C)C (stereo unspecified) + CCn1c(-c2cccnc2C(C)OC)c2c3cc(ccc31)N1CCOC(CC(NC(=O)C(C(C)C)N(C)C(=O)C3(F)CCN(C(=O)C#CC(C)(C)N(C)C)CC3)C(=O)N3CCCC(N3)C(=O)OCC(C)(C)C2)C1
< 0.0316 µM: IC50 (second compound 0.000949 µM) | IC50 (second compound 0.003 µM) | IC50 (second compound 0.00949 µM) | IC50 (second compound 0.03 µM) | IC50 (second compound 0.0949 µM) | IC50 (second compound 0.3 µM)
active: viability, T/C [1] 0.74% | viability, T/C [2] 0.57% | viability, T/C [3] 0.52% | viability, T/C [4] 0.54% | viability, T/C [5] 0.6% | viability, T/C [6] 0.65% | viability, T/C [7] 0.76% | viability, T/C [8] 0.89% | viability, T/C [9] 0.7% | viability, T/C [10] 0.54% | viability, T/C [11] 0.6% | viability, T/C [12] 0.71% | viability, T/C [13] 0.76% | viability, T/C [14] 0.82% | viability, T/C [15] 0.62% | viability, T/C [16] 0.64% | viability, T/C [17] 0.66% | viability, T/C [18] 0.68% | viability, T/C [19] 0.73% | viability, T/C [20] 0.53% | viability, T/C [21] 0.75% | viability, T/C [22] 0.63% | viability, T/C [23] 0.5% | viability, T/C [24] 0.52% | viability, T/C [25] 0.63% | viability, T/C [26] 0.57% | viability, T/C [27] 0.51% | viability, T/C [28] 0.63% | viability, T/C [29] 0.58% | viability, T/C [30] 0.72% | viability, T/C [31] 0.63% | viability, T/C [32] 0.68% | viability, T/C [33] 0.63% | viability, T/C [34] 0.6% | viability, T/C [35] 0.65% | viability, T/C [36] 0.71%

C[C@@H](NC(=O)c1ncnc(N)c1Cl)c1ncc(C(=O)Nc2cc(C(F)(F)F)c(Cl)cn2)s1 + CCn1c(-c2cc(N3CCN(C)CC3)cnc2C(C)OC)c2c3cc(ccc31)-c1csc(n1)CC(NC(=O)C1CC1C)C(=O)N1CCCC(N1)C(=O)OCC(C)(C)C2
> 10 µM: IC50 (second compound 0.000949 µM) | IC50 (second compound 0.003 µM) | IC50 (second compound 0.00949 µM) | IC50 (second compound 0.03 µM)
inactive: viability, T/C [1] 104% | viability, T/C [2] 100% | viability, T/C [3] 102% | viability, T/C [4] 98.9% | viability, T/C [5] 104% | viability, T/C [6] 112% | viability, T/C [7] 95.8% | viability, T/C [8] 99.7% | viability, T/C [9] 103% | viability, T/C [10] 101% | viability, T/C [11] 105% | viability, T/C [12] 114% | viability, T/C [13] 91.8% | viability, T/C [14] 104% | viability, T/C [15] 107% | viability, T/C [16] 111% | viability, T/C [17] 111% | viability, T/C [18] 115% | viability, T/C [19] 114% | viability, T/C [20] 121% | viability, T/C [21] 120% | viability, T/C [22] 119% | viability, T/C [23] 115% | viability, T/C [24] 89.2% | viability, T/C [25] 19.9% | viability, T/C [26] 28.3% | viability, T/C [27] 35.9% | viability, T/C [28] 43.4% | viability, T/C [29] 45.6% | viability, T/C [30] 18.5% | viability, T/C [31] 6.79% | viability, T/C [32] 9.47% | viability, T/C [33] 9.99% | viability, T/C [34] 13.3% | viability, T/C [35] 14.1% | viability, T/C [36] 8.3%
< 0.0316 µM: IC50 (second compound 0.0949 µM) | IC50 (second compound 0.3 µM)
